Common to all, as to assay type: cell-based
In assay [1] the test system is SK-N-SH human neuroblastoma cells. Put plainly: Cell Titer Blue in vitro cell viability assay, SK-N-SH. The settings on record: 72 h, SK-N-SH (DMEM), 3 days at 37° C. The protocol: (§1) FIG. 15: Dose Response curve for MBC0179 with SK—N—SH cells. Compound MBC0179 was incubated with SK—N—SH human neuroblastoma cells at the indicated concentrations for 3 days at 37° C. prior to Cell Titer Blue fluorescence-based cell viability assay. Normalized cell viability data, expressed as a percentage, are averaged from three biological replicates and standard error represented by error bars for each averaged data point (empty squares). The compound concentrations are represented on log scale on the x-axis in μM units. Data were analyzed using free software called DrFit, as described in Nature Scientific Reports, Article number: 14701, (2015). […]
(§2) The Cell Titer Blue reagent (available from Promega, Inc.) is a buffered solution containing resazurin, a compound that is converted to resorufin, a detectable fluorescent product, by metabolically active cells. The fluorescence intensity of resorufin product therefore serves as a proportional measure of the number of viable cells, permitting changes in cell viability within cancer or other cell lines to be monitored in response to the addition of cytotoxic or cytostatic agents. […] Metastases to the lungs may be conveniently quantified by a well-established clonogenic assay. […]
(Resazurin is reduced to fluorescent resorufin, in cell work by metabolically active cells.)

Assay [2] deals with A549 human lung cancer cells. Nature of the assay: Cell Titer Blue in vitro cell viability assay, A549. The conditions noted are these: 72 h, A549 (DMEM), 3 days at 37° C. The protocol:
as §1, with “13:” for “15:”, “A549” for “SK—N—SH”, “lung cancer” for “neuroblastoma”
as §2

The test system of assay [3] is HEPG2 human liver carcinoma cells. Nature of the assay: Cell Titer Blue in vitro cell viability assay, HEPG2. The conditions noted are these: 72 h, HEPG2 (DMEM), 3 days at 37° C. The protocol: as §1, with “12:” for “15:”, “HEPG2” for “SK—N—SH”, “liver carcinoma” for “neuroblastoma”
as §2

Non-standard residues stand in square brackets, D forms with d. Residues, ends and D or L forms follow the SMILES beside them. *: point of attachment. Palmitoyl = CCCCCCCCCCCCCCCC(=O)*

As for `CCCCCCCCCCCCCCCC(=O)N[C@H](Cc1c[nH]cn1)C(=O)N[C@@H](C(=O)OCC)C(C)C` [Compound 5, N-[N-(1-oxohexadecyl)-D-histidyl]-D-valine ethyl ester] (Palmitoyl-[dH]-[dV]-OEt), the IC50 in assay [1] was 35 µM; in assay [2] it was 10.5 µM; in assay [3], 24.9 µM.

What is called IC50 is the concentration needed to halve the response being measured.

For the origin of these results see patent US20240124520A1, “N-ACYLATED HISTIDINE DIPEPTIDES AS ANTICANCER AGENTS” (THE BOARD OF TRUSTEES OF THE LELAND STANFORD JUNIOR …, priority 2019, published 2024).
